The conditions of data set [1]: [M+H]+; instrument: TW; Major Mix IMS/Tof Calibration Kit (Waters).
For data set [2] the following is noted: instrument: TW, calibrated with phosphatidylcholines (ESI+) and phosphatidylethanolamines (ESI-).
The conditions of data set [3]: [M+H]+; instrument: DT; stepped-field.
For data set [4] the following is noted: instrument: DT, single field, calibrated with Agilent tune mix (Agilent).

SMILES strings stand for the structures.

With `O=C1Nc2ccc(Br)cc2C(c2ccccn2)=NC1O` (configuration not stated) [3-Hydroxybromazepam], the “collision cross section (N2)” value in data set [1] was 161 Å².
Still for that read-out and setting: the figure for `COc1ccc2cccc(CCNC(C)=O)c2c1` [Agomelatine] is 156.3 Å².
The same measure, in the same setting: for `CC(CN(C)C)CN1c2ccccc2Sc2ccccc21` (configuration not stated) [Alimemazine] the value was 166.8 Å²; for `CN(C)CCc1c[nH]c2ccc(CS(=O)(=O)N3CCCC3)cc12` [Almotriptan], 175.8 Å²; for `CCCCc1oc2ccccc2c1C(=O)c1cc(I)c(OCCNCC)c(I)c1` [Amiodarone-M N-Desethyl], 219.8 Å².
On the same count and under the same terms, the figure for `CCCC1C(=O)N2C(N(C)C)=Nc3ccc(C)cc3N2C1=O` (configuration not stated) [Apazone] is 169.5 Å²; for `CN1C[C@@H]2c3ccccc3Oc3ccc(Cl)cc3[C@H]2C1` [Asenapine] it is 167.6 Å².
For the compound `CNCC[C@@H](Oc1ccccc1C)c1ccccc1` [Atomoxetine], the “collision cross section (N2)” value in data set [1] came out at 164.2 Å².
As for `CC(C)c1c(C(=O)Nc2ccccc2)c(-c2ccccc2)c(-c2ccc(F)cc2)n1CC[C@@H](O)C[C@@H](O)CC(=O)O` [Atorvastatin], the “collision cross section (N2)” value in data set [1] is given as 233 Å².
Still for that read-out and setting: the figure for `CN(C)C(=O)Oc1cc(OC(=O)N(C)C)cc(C(O)CNC(C)(C)C)c1` (configuration not stated) [Bambuterol] is 189.7 Å²; for `OC(CCN1CCCCC1)(c1ccccc1)C1C[C@H]2C=C[C@@H]1C2` (some centres not stated) [Biperiden] it is 177.7 Å².
On to `O=C1CN=C(c2ccccn2)c2cc(Br)ccc2N1` [Bromazepam], for which the “collision cross section (N2)” value in data set [1] is 159.8 Å².
Still for that read-out and setting: the figure for `C[C@@H](N)Cc1c2ccoc2c(Br)c2ccoc12` [Bromodragonfly] is 158.1 Å²; for `CO[C@]12CC[C@@]3(C[C@@H]1[C@](C)(O)C(C)(C)C)[C@H]1Cc4ccc(O)c5c4[C@@]3(CCN1CC1CC1)[C@H]2O5` [Buprenorphine] it is 209.7 Å².
Regarding `COc1cc(CNC(=O)CCCC/C=C/C(C)C)ccc1O` [Capsaicin], the “collision cross section (N2)” value in data set [1] is 183 Å².
On the same count and under the same terms, for `O=C(O)COCCN1CCN(C(c2ccccc2)c2ccc(Cl)cc2)CC1` (configuration not stated) [Cetirizine] the value was 200.8 Å²; for `CN(C)CCCN1c2ccccc2Sc2ccc(Cl)cc21` [Chlorpromazine], 170.6 Å².
On the same count and under the same terms, the figure for `O=C1CC(=O)N(c2ccccc2)c2cc(Cl)ccc2N1` [Clobazam-M nor] is 161.7 Å²; for `CN1C(=O)CC(=O)N(c2ccccc2)c2cc(Cl)ccc21` [Clobazam] it is 165.7 Å²; for `CN(C)CCCN1c2ccccc2CCc2ccc(Cl)cc21` [Clomipramine] it is 174.3 Å².
The same measure, in the same setting: the figure for `Nc1ccc2c(c1)C(c1ccccc1Cl)=NCC(=O)N2` [Clonazepam-M 7-amino] is 162.5 Å²; for `COC(=O)[C@H]1[C@@H](OC(=O)c2ccccc2)C[C@@H]2CC[C@H]1N2C` [Cocaine] it is 169.8 Å²; for `COc1ccc2c3c1O[C@H]1[C@@H](O)C=C[C@H]4[C@@H](C2)N(C)CC[C@@]341` [Codeine] it is 168.2 Å².
`CN1C(=O)CC[C@H]1c1cccnc1` [Cotinine]: the “collision cross section (N2)” value in data set [1] was 140.7 Å².
The same measure, in the same setting: for `O=C1C[N+]([O-])=C(c2ccccc2)c2cc(Cl)ccc2N1` [Demoxepam] the value was 161.7 Å²; for `c1ccc(C(c2ccccc2)C2CCCCN2)cc1` (configuration not stated) [Desoxypipradrol], 164.1 Å².
On to `O=C1CN=C(c2ccccc2)c2cc(Cl)ccc2N1` [Diazepam-M N-desmethyl], for which, in data set [1], the “collision cross section (N2)” value turned out to be 160.1 Å².
As to `CN1C(=O)CN=C(c2ccccc2)c2cc(Cl)ccc21` [Diazepam], the “collision cross section (N2)” value in data set [1] worked out at 164.2 Å².
The same measure, in the same setting: for `CCCCOc1cc(C(=O)NCCN(CC)CC)c2ccccc2n1` [Dibucaine] the value was 196.2 Å²; for `CNCC[C@H](Oc1cccc2ccccc12)c1cccs1` [Duloxetine], 171 Å²; for `C/C=C1\N(C)C(C)CC1(c1ccccc1)c1ccccc1` (configuration not stated) [EDDP], 166.2 Å².
`CCOC(=O)[C@H](CCc1ccccc1)N[C@@H](C)C(=O)N1CCC[C@H]1C(=O)O` [Enalapril]: the “collision cross section (N2)” value in data set [1] is 187.2 Å².
As for `CCOC(=O)C(c1ccccc1)C1CCCCN1` (configuration not stated) [Ethylphenidate], the “collision cross section (N2)” value in data set [1] is listed as 159.5 Å².
The same measure, in the same setting: for `CC(C)(C(=O)O)c1ccc(C(O)CCCN2CCC(C(O)(c3ccccc3)c3ccccc3)CC2)cc1` (configuration not stated) [Fexofenadine] the value was 226.9 Å²; for `CNC(C)C(=O)c1ccc(F)cc1` (configuration not stated) [Flephedrone], 139.8 Å²; for `COc1ccc2c3c1O[C@H]1C[C@@H](O)C=C[C@@]31CCN(C)C2` [Galantamine], 166.9 Å².
The same measure, in the same setting: the figure for `CCC1=C(C)CN(C(=O)NCCc2ccc(S(=O)(=O)NC(=O)NC3CCC(C)CC3)cc2)C1=O` (configuration not stated) [Glimepiride] is 216.6 Å².
In the case of `Cc1cnc(C(=O)NCCc2ccc(S(=O)(=O)NC(=O)NC3CCCCC3)cc2)cn1` [Glipizide], in data set [1], the “collision cross section (N2)” value came out at 198.9 Å².
On the same count and under the same terms, the figure for `O=C(CCCN1CCC(O)(c2ccc(Cl)cc2)CC1)c1ccc(F)cc1` [Haloperidol] is 193.7 Å²; for `COc1ccc2c3c1O[C@H]1C(=O)CC[C@H]4[C@@H](C2)N(C)CC[C@]314` [Hydrocodone] it is 167.4 Å²; for `OCCOCCN1CCN(C(c2ccccc2)c2ccc(Cl)cc2)CC1` (configuration not stated) [Hydroxyzine] it is 197.4 Å².
Regarding `Cc1ccc(NC(=O)c2ccc(CN3CCN(C)CC3)cc2)cc1Nc1nccc(-c2cccnc2)n1` [Imatinib], the “collision cross section (N2)” value in data set [1] was 214.6 Å².
Same read-out and setting: the figure for `CC1Cc2ccccc2N1NC(=O)c1ccc(Cl)c(S(N)(=O)=O)c1` (configuration not stated) [Indapamide] is 185.6 Å².
Regarding `COc1ccc2c(c1)c(CC(=O)O)c(C)n2C(=O)c1ccc(Cl)cc1` [Indomethacin], the “collision cross section (N2)” value in data set [1] is recorded as 179.5 Å².
`CCCCCCCCCCCCCCCCCC(=O)O[C@H](CO)COP(=O)([O-])OCC[N+](C)(C)C` [LPC(18:0)]: the “collision cross section (N2)” value came out at 235.7 Å² in data set [2] ([M+H]+); 240.7 Å² in data set [3]; 241.4 Å² in data set [4] ([M+HCOO]-); 237.9 Å² in data set [4] ([M+H]+); 240.8 Å² in data set [4] ([M+Na]+).
For `CCCC/C=C\CCCCCCCC(=O)OC[C@H](COP(=O)(O)OC[C@@H](O)CO)OC(=O)CCCCCCCCC/C=C\C/C=C\CCCCC` [PG(34:3)], the entries for the “collision cross section (N2)” value in data set [2] ([M+Na]+) and in data set [4] ([M-H]-) were 275.1 Å² and 266.2 Å², respectively.
As for `CC/C=C\C/C=C\C/C=C\C/C=C\CCCCC(=O)OC[C@H](COP(=O)(O)OC[C@@H](O)CO)OC(=O)CCCCCCCCC/C=C\CCCCCCCC` [PG(38:5)], the “collision cross section (N2)” value in data set [2] ([M+Na]+) turned out to be 285.9 Å²; in data set [2] ([M-H]-), 276.5 Å²; in data set [4] ([M+H]+) it was 292.1 Å²; in data set [4] ([M+Na]+), 288.8 Å².
`CC/C=C\C/C=C\C/C=C\C/C=C\C/C=C\C/C=C\CCC(=O)O[C@H](COC(=O)CCCCCCCCCCCCCCC)COP(=O)(O)OC[C@@H](O)CO` [PG(38:6)]: the “collision cross section (N2)” value was found to be 284 Å² in data set [2] ([M+Na]+); 275.6 Å² in data set [2] ([M-H]-); 289.3 Å² in data set [4] ([M+H]+); 290.2 Å² in data set [4] ([M+NH4]+); 286 Å² in data set [4] ([M+Na]+).
Regarding `CCCCC/C=C\C/C=C\C/C=C\C/C=C\CCCCCC(=O)OC[C@H](COP(=O)(O)OC[C@@H](O)CO)OC(=O)CCCCCCC/C=C\CCCCCCCC` [PG(40:5)], the “collision cross section (N2)” value in data set [2] ([M+Na]+) turned out to be 292.7 Å²; in data set [2] ([M-H]-) it was 283 Å²; in data set [4] ([M+NH4]+), 298.9 Å²; in data set [4] ([M+Na]+) it was 295.2 Å²; in data set [4] ([M-H]-) it was 283.4 Å².
With `CCCCCCCCCC/C=C\CCCCCCCCCC(=O)O[C@H](COC(=O)CCCCCCCCCCC)COP(=O)(O)O[C@H]1C(O)C(O)C(O)[C@@H](O)C1O` (some centres not stated) [PI(34:1)], the “collision cross section (N2)” value turned out to be 283.7 Å² in data set [2] ([M-H]-); 294.9 Å² in data set [4] ([M+H]+); 295.8 Å² in data set [4] ([M+NH4]+); 292.4 Å² in data set [4] ([M+Na]+); 283.7 Å² in data set [4] ([M-H]-).
As to `CCCCC/C=C\C/C=C\CCCCCCCCCCCC(=O)O[C@H](COC(=O)CCCCCCCCCCC)COP(=O)(O)O[C@H]1C(O)C(O)C(O)[C@@H](O)C1O` (some centres not stated) [PI(34:2)], the “collision cross section (N2)” value in data set [2] ([M-H]-) is reported as 282.4 Å²; in data set [4] ([M+H]+), 291.6 Å²; in data set [4] ([M+NH4]+), 292.9 Å²; in data set [4] ([M-H]-), 282.4 Å².
Take `CCCCC/C=C\C/C=C\CCCCCCCCCCCC(=O)O[C@H](COC(=O)CCCCCCC/C=C\C/C=C\CCCCC)COP(=O)(O)O[C@H]1C(O)C(O)C(O)[C@@H](O)C1O` (some centres not stated) [PI(40:4)]: the “collision cross section (N2)” value in data set [2] ([M-H]-) was found to be 297.1 Å²; in data set [4] ([M+Na]+), 307.1 Å²; in data set [4] ([M-H]-), 298.2 Å².

These data come from the C3SDB collision cross section collection.
